In brackets after ≈: the same amount, converted by molar mass.
Legend:
[1] = Stability to porcine renal DHP-I; assay type: ADME, Sus scrofa; conditions: pig
Enterobacter cloacae = assay: Antibacterial activity against Enterobacter cloacae 1321E; assay type: functional
Escherichia coli [2] = assay: Antibacterial activity against Escherichia coli 1507E; assay type: functional
Pseudomonas aeruginosa [3] = assay: Antibacterial activity against Pseudomonas aeruginosa 1592E; assay type: functional
Staphylococcus aureus [4] = assay: Antibacterial activity against Staphylococcus aureus SG 511; assay type: functional
Streptococcus pyogenes = assay: Antibacterial activity against Streptococcus pyogenes 308A; assay type: functional
Escherichia coli [5] = assay: Antibacterial activity against Escherichia coli 078; assay type: functional
Pseudomonas aeruginosa [6] = assay: Antibacterial activity against Pseudomonas aeruginosa 9027; assay type: functional
Pseudomonas aeruginosa [7] = assay: Antibacterial activity against Pseudomonas aeruginosa 1771M; assay type: functional
Staphylococcus aureus [8] = assay: Antibacterial activity against Staphylococcus aureus 285; assay type: functional
Salmonella typhimurium = assay: Antibacterial activity against Salmonella Typhimurium; assay type: functional, Salmonella enterica subsp. enterica serovar Typhimurium; conditions: Salmonella enterica
Klebsiella aerogenes = assay: Antibacterial activity against Klebsiella aerogenes 1522E; assay type: functional
Staphylococcus aureus [9] = assay: Antibacterial activity against Staphylococcus aureus 503; assay type: functional
Mus musculus [10] = assay: In vivo therapeutic efficacy in systemic infections caused by Streptococcus pyogenes 77A in mice, at a single subcutaneous administration; assay type: functional; conditions: sc, read-out: PD50
Mus musculus [11] = assay: In vivo therapeutic efficacy in systemic infections caused by Escherichia coli 078 in mice, at a single subcutaneous administration; assay type: functional; conditions: sc, read-out: PD50
Mus musculus [12] = assay: In vivo therapeutic efficacy in systemic infections caused by Staphylococcus aureus Y-80-1953 in mice, at a single subcutaneous administration; assay type: functional; conditions: sc, read-out: PD50
Mus musculus [13] = assay: In vivo therapeutic efficacy in systemic infections caused by Pseudomonas aeruginosa 1771M in mice, at a single subcutaneous administration; assay type: functional; conditions: sc, read-out: PD50

Row | SMILES | Relative t1/2 [1] | MIC (Enterobacter cloacae) [µg/mL] | MIC (Escherichia coli [2]) [µg/mL] | MIC (Pseudomonas aeruginosa [3]) [µg/mL] | MIC (Staphylococcus aureus [4]) [µg/mL] | MIC (Streptococcus pyogenes) [µg/mL] | MIC (Escherichia coli [5]) [µg/mL] | MIC (Pseudomonas aeruginosa [6]) [µg/mL] | MIC (Pseudomonas aeruginosa [7]) [µg/mL] | MIC (Staphylococcus aureus [8]) [µg/mL] | MIC (Salmonella typhimurium) [µg/mL] | MIC (Klebsiella aerogenes) [µg/mL] | MIC (Staphylococcus aureus [9]) [µg/mL] | ED50 (Mus musculus [10]) [mg/kg] | ED50 (Mus musculus [11]) [mg/kg] | ED50 (Mus musculus [12]) [mg/kg] | ED50 (Mus musculus [13]) [mg/kg]
1 | C[C@@H](O)[C@H]1C(=O)N2C(C(=O)O)=C(S[C@@H]3CN[C@H](/C=C/c4ccsn4)C3)[C@H](C)[C@H]12 | 1.42 | 0.025 (≈ 0.0593 µM) | 0.049 (≈ 0.116 µM) | 1.56 (≈ 3.71 µM) | 0.025 (≈ 0.0593 µM) | 0.007 (≈ 0.0166 µM) | 0.049 (≈ 0.116 µM) | 1.56 (≈ 3.71 µM) | 0.391 (≈ 0.928 µM) | 0.025 (≈ 0.0593 µM) | 0.049 (≈ 0.116 µM) | 0.098 (≈ 0.232 µM) | 0.013 (≈ 0.0308 µM) |  |  |  | 
2 | C[C@@H](O)[C@H]1C(=O)N2C(C(=O)O)=C(S[C@@H]3CN[C@H](C(=O)N(C)C)C3)[C@H](C)[C@H]12 [MEROPENEM] | 1 | 0.025 (≈ 0.0652 µM) | 0.025 (≈ 0.0652 µM) | 0.195 (≈ 0.509 µM) | 0.195 (≈ 0.509 µM) | 0.013 (≈ 0.0339 µM) | 0.025 (≈ 0.0652 µM) | 0.195 (≈ 0.509 µM) | 0.049 (≈ 0.128 µM) | 0.195 (≈ 0.509 µM) | 0.049 (≈ 0.128 µM) | 0.049 (≈ 0.128 µM) | 0.098 (≈ 0.256 µM) | 4.72 | 1.11 | 4.49 | 5.43
3 | C[C@@H](O)[C@H]1C(=O)N2C(C(=O)O)=C(S[C@@H]3CN[C@H](/C=C/c4ccno4)C3)[C@H](C)[C@H]12 | 1.95 | 0.025 (≈ 0.0617 µM) | 0.025 (≈ 0.0617 µM) | 0.195 (≈ 0.481 µM) | 0.025 (≈ 0.0617 µM) | 0.004 (≈ 0.00986 µM) | 0.025 (≈ 0.0617 µM) | 0.195 (≈ 0.481 µM) | 0.098 (≈ 0.242 µM) | 0.049 (≈ 0.121 µM) | 0.049 (≈ 0.121 µM) | 0.049 (≈ 0.121 µM) | 0.013 (≈ 0.0321 µM) |  |  |  | 
4 | C[C@@H](O)[C@H]1C(=O)N2C(C(=O)O)=C(SCCNC=N)C[C@H]12.O [IMIPENEM] | 0.19 | 0.195 | 0.195 | 1.56 | 0.025 | 0.007 | 0.098 | 0.781 | 0.195 | 0.025 | 0.781 | 0.391 | 0.013 |  |  |  | 
5 | C[C@@H](O)[C@H]1C(=O)N2C(C(=O)O)=C(S[C@@H]3CN[C@H](/C=C/c4ccns4)C3)[C@H](C)[C@H]12 | 3.36 | 0.049 (≈ 0.116 µM) | 0.025 (≈ 0.0593 µM) | 0.391 (≈ 0.928 µM) | 0.013 (≈ 0.0308 µM) | 0.004 (≈ 0.00949 µM) | 0.025 (≈ 0.0593 µM) | 0.391 (≈ 0.928 µM) | 0.195 (≈ 0.463 µM) | 0.025 (≈ 0.0593 µM) | 0.049 (≈ 0.116 µM) | 0.049 (≈ 0.116 µM) | 0.013 (≈ 0.0308 µM) | 0.32 | 0.32 | 1.27 | 6.17

Source: ChEMBL document CHEMBL1136553, “Synthesis and biological evaluation of novel 1 beta-methylcarbapenems with isothiazoloethenyl side chains” (Bioorg Med Chem Lett, 2003)
